According to the supplement of paper PMC10307832:

Legend:
Test in all cases: relative viability (nuclei count vs DMSO), 5 days (fraction); higher = more cells survive
TPCA-1 + Navitoclax = compound: C1=CC(=CC=C1C2=CC(=C(S2)NC(=O)N)C(=O)N)F [TPCA-1] + CC1(C)CCC(c2ccc(Cl)cc2)=C(CN2CCN(c3ccc(C(=O)NS(=O)(=O)c4ccc(N[C@H](CCN5CCOCC5)CSc5ccccc5)c(S(=O)(=O)C(F)(F)F)c4)cc3)CC2)C1 [Navitoclax] (partner 0.5 µM)
Method in brief: (§1)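 Nuclei were stained with Hoechst during a one-step fixation (final 0.05% Triton X-100, 1% formaldehyde, 1 ug/ml Hoechst) carried out 5 days after dosing, then counted on 4× images. The cells, lung cancer lines in 1536-well plates, had been dosed by pin tool the day after seeding with one drug alone or a fixed anchor-drug dose plus five library-drug doses (not always all listed) in √10 steps. Relative viability is the nuclei count in treated wells divided by that in vehicle wells, and each value is the median of duplicate plates.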

[1] = compound: C1/C(=C\C2=CC=CS2)/C(=O)/C(=C/C3=CC=CS3)/C1 + CC1(C)CCC(c2ccc(Cl)cc2)=C(CN2CCN(c3ccc(C(=O)NS(=O)(=O)c4ccc(N[C@H](CCN5CCOCC5)CSc5ccccc5)c(S(=O)(=O)C(F)(F)F)c4)cc3)CC2)C1 [Navitoclax] (partner 0.5 µM)
Method in brief: as §1

TPCA-1 + Palbociclib = compound: C1=CC(=CC=C1C2=CC(=C(S2)NC(=O)N)C(=O)N)F [TPCA-1] + CC(=O)c1c(C)c2cnc(Nc3ccc(N4CCNCC4)cn3)nc2n(C2CCCC2)c1=O [Palbociclib] (partner 0.5 µM)
Method in brief: as §1

[2] = compound: C[C@]12O[C@H](C[C@]1(O)CO)n1c3ccccc3c3c4c(c5c6ccccc6n2c5c31)CNC4=O [Lestaurtinib] + Nc1nc2[nH]cc(CCc3ccc(C(=O)N[C@@H](CCC(=O)O)C(=O)O)cc3)c2c(=O)[nH]1 [Pemetrexed] (partner 0.2 µM)
Method in brief: as §1

| Cell Line | relative viability (TPCA-1 + Navitoclax; first compound 0.04 µM) | relative viability (TPCA-1 + Navitoclax; first compound 0.1265 µM) | relative viability (TPCA-1 + Navitoclax; first compound 0.4 µM) | relative viability (TPCA-1 + Navitoclax; first compound 1.265 µM) | relative viability (TPCA-1 + Navitoclax; first compound 4 µM) | relative viability ([1]; first compound 0.2 µM) | relative viability ([1]; first compound 0.6325 µM) | relative viability ([1]; first compound 2 µM) | relative viability ([1]; first compound 6.325 µM) | relative viability ([1]; first compound 20 µM) | relative viability (TPCA-1 + Palbociclib; first compound 0.04 µM) | relative viability (TPCA-1 + Palbociclib; first compound 0.1265 µM) | relative viability (TPCA-1 + Palbociclib; first compound 0.4 µM) | relative viability (TPCA-1 + Palbociclib; first compound 1.265 µM) | relative viability (TPCA-1 + Palbociclib; first compound 4 µM) | relative viability ([2]; first compound 0.005 µM) | relative viability ([2]; first compound 0.01581 µM) | relative viability ([2]; first compound 0.05 µM) | relative viability ([2]; first compound 0.1581 µM) | relative viability ([2]; first compound 0.5 µM) |
| --- | --- | --- | --- | --- | --- | --- | --- | --- | --- | --- | --- | --- | --- | --- | --- | --- | --- | --- | --- | --- |
| NCI-H1755 | 0.998 | 0.95 | 0.949 | 0.847 | 0.696 | 1.07 | 1.03 | 0.963 | 0.849 | 0.944 | 0.457 | 0.454 | 0.459 | 0.431 | 0.399 | 0.478 | 0.463 | 0.41 | 0.36 | 0.353 |
| EPLC-272H | 1.28 | 0.969 | 0.934 | 1.01 | 0.821 | 1.28 | 0.965 | 1.15 | 1.09 | 0.95 | 0.355 | 0.3 | 0.328 | 0.326 | 0.297 | 0.308 | 0.349 | 0.452 | 0.189 | 0.0958 |
| NCI-H1437 | 1.11 | 1.05 | 1.13 | 1.07 | 1.08 | 1.15 | 1.09 | 1.07 | 1.03 | 0.992 | 0.302 | 0.288 | 0.3 | 0.35 | 0.3 | 0.274 | 0.305 | 0.293 | 0.23 | 0.238 |
| EKVX | 0.956 | 0.818 | 0.913 | 0.793 | 0.836 | 0.999 | 0.87 | 0.916 | 0.912 | 0.919 | 0.451 |  | 0.469 | 0.269 | 0.394 | 0.419 |  | 0.276 | 0.398 | 0.256 |
| NCI-H1651 | 0.97 | 0.913 | 0.947 | 1.16 | 0.995 | 1.25 | 1.01 | 1.07 |  | 1.11 | 0.54 | 0.493 | 0.51 | 0.535 | 0.505 | 0.534 | 0.722 | 0.571 | 0.615 | 0.388 |
| HCC-15 | 0.825 | 0.64 | 0.682 | 0.686 | 0.519 | 0.696 | 0.676 | 0.682 | 0.621 | 0.615 | 0.835 | 0.698 | 0.801 | 0.694 | 0.472 | 0.244 | 0.227 | 0.229 | 0.195 | 0.138 |
| NCI-H23 | 0.823 | 0.742 | 0.687 | 0.616 | 0.694 | 0.902 | 0.804 | 0.944 | 0.602 | 0.729 | 0.539 | 0.527 | 0.51 | 0.431 | 0.435 | 0.622 | 0.787 | 0.503 | 0.449 | 0.292 |
| NCI-H1792 | 0.714 | 0.622 | 0.677 | 0.621 | 0.279 | 0.666 | 0.579 | 0.743 |  | 0.624 | 0.707 | 0.562 | 0.593 | 0.574 | 0.496 | 0.748 | 1.15 | 0.257 | 0.371 | 0.31 |
| NCI-H460 | 1.24 | 1.04 | 1 | 1.1 | 0.709 | 1.26 | 1.34 | 1.12 |  | 1.14 | 0.187 | 0.086 |  | 0.16 | 0.136 | 0.0559 | 0.0645 | 0.0633 | 0.0509 | 0.0531 |
| HCC-366 | 1.01 | 0.942 | 1.14 | 0.952 | 1 | 1.09 | 1 | 0.955 | 1.05 | 1.05 |  | 0.346 | 0.397 | 0.328 | 0.192 | 0.158 | 0.168 | 0.157 | 0.163 | 0.104 |
| NCI-H2085 | 1.14 | 1.1 | 1.2 | 1.12 | 1.13 | 1.13 | 1.16 | 1.03 | 1.15 | 1.09 |  | 0.47 | 0.489 | 0.443 | 0.46 | 0.861 | 0.877 | 0.915 | 0.858 | 0.78 |
| PC-14 | 1.03 | 0.876 | 1.01 | 1.09 | 0.913 | 1.05 | 0.987 | 0.978 | 0.88 | 0.999 | 0.502 | 0.57 | 0.557 | 0.518 | 0.4 | 0.153 | 0.131 | 0.154 | 0.154 | 0.0792 |
| HOP-62 | 0.982 | 1.06 | 1.02 | 0.899 | 0.809 | 0.985 | 1.23 | 0.8 | 0.952 | 1.06 | 0.483 | 0.458 | 0.497 | 0.418 | 0.466 | 0.269 | 0.322 | 0.309 | 0.339 | 0.22 |
| NCI-H2087 | 1.02 | 0.818 | 0.936 | 0.791 | 0.356 | 1.13 | 1.04 | 0.933 | 0.669 | 1.05 | 0.253 | 0.241 | 0.218 | 0.237 | 0.155 | 0.708 | 0.688 | 0.675 | 0.632 | 0.332 |
| NCI-H1793 | 0.425 | 0.354 | 0.413 | 0.342 | 0.319 | 0.376 | 0.512 | 0.503 | 0.402 | 0.519 | 0.358 | 0.301 | 0.303 | 0.355 | 0.213 | 0.809 | 0.911 | 0.544 | 0.692 | 0.541 |
| PC-3 [JPC-3] | 0.839 | 0.807 | 0.802 | 0.677 | 0.719 | 0.83 | 0.753 | 0.904 | 0.716 | 0.841 | 0.516 | 0.538 | 0.514 | 0.537 | 0.285 | 0.747 | 1.5 | 0.918 | 0.94 | 0.613 |
